Format in all cases: cell-based
Assay [1] concerns Human Glioma cancer cell line U251. The assay is described as follows: Cell Proliferation Assay by CCK-8 Reagent. To be noted: Homo sapiens, U-251, 72 h, U251 cells, 72 hours incubation, CCK-8, % viability vs vehicle control. Here is the method: Human Glioma cancer cell line U251 was maintained in DMEM (Gibco, Cat #10569-10) supplemented with 10% fetal bovine serum inactivated at 56° C. (Gibco, Cat #10082-147), 100 U/mL penicillin, and 100 μg/mL streptomycin (Gibco, Cat #15140-122) at 37° C. and 1% MEM non-essential amino acid (Sigma, Cat #M7145) in a humid atmosphere containing 5% CO2. The cells were seeded at 2.5×10^3 cells/well in a 96 well plate (BD falcon, Cat #353072) with 200 pt volume/well and kept in 37° C./5% CO2 incubator for 0/N incubation. The seeding density was optimized previously based on growth curve. On the next day, plated cells were incubated with each test compounds at eight different concentrations (100, 50, 25, 12.5, 6.25, 3.125, 1.5 and 0.78) in triplicates. DMSO was used as a Vehicle control and Culture medium was used as blank control for the assay in each plate. The percentage of DMSO was kept uniform across the plate as <1%. The compound treated cells were incubated in 37° C./5% CO2 incubator for 72 hours. After incubation period, […] CCK-8 reagent (Dojindo, Cat #CK04) was added in all the wells and plate was kept in 37° C./5% CO2 incubator for 3 hours. After CCK-8 incubation, absorbance was measured @ 450 nm using Spectrophotometer (BMG, Omega Polar Star). % Viability values at each concentration were calculated with respect to Vehicle control and EC50 values were calculated using graph pad prism software and are shown in Table A.

In a further assay the target is Cav3.1 (Homo sapiens (Human), UniProt O43497). The assay is described as follows: Whole-cell voltage clamp recording, HEK293 cells expressing T-type channel Cav3.1. The note with it: holding potential −100 mV, depolarized to −30 mV for 100 ms, room temperature. The protocol:
(§1) Whole-cell voltage clamp recordings were performed on cultured HEK293 cells expressing T-type channels (encoded by Cav3.1, Cav3.2, or Cav3.3 channels). All experiments were performed at room temperature. Whole-cell currents were recorded using a MultiClamp 700B amplifier and analyzed offline with pCLAMP10.4 software (Molecular Devices, LLC, Sunnyvale Calif., USA). […] Test compounds were usually applied via a rapid solution exchange system with 8 fine polyplastic tubings glued in a holder in parallel and located closely to the recorded cells. The current responses were normalized to the control, percent inhibition was calculated and sigmoidal dose-response curettes we're generated using XLFIT (IDBS, Surrey, UK) or Prism (GraphPad Software, LA Jola, Calif., US) to calculate IC50 values and Hill slopes using the following equation Y=Bottom+(Top−Bottom)/1+10{circumflex over (()}(Log EC50−X)−HillsSlope)). IC50 values are given in micromolar units.

The next assay addresses Cav3.2 (Homo sapiens (Human), UniProt O95180). The experiment in a line: Whole-cell voltage clamp recording, HEK293 cells expressing T-type channel Cav3.2. To be noted: holding potential −100 mV, depolarized to −30 mV for 100 ms, room temperature. Here is the method: as §1
In the next assay the target is Cav3.3 (Homo sapiens (Human), UniProt Q9P0X4). The assay is described as follows: Whole-cell voltage clamp recording, HEK293 cells expressing T-type channel Cav3.3. The note with it: holding potential −100 mV, depolarized to −30 mV for 100 ms, room temperature. The protocol: as §1
Sequence of Cav3.3 (Q9P0X4 whole entry, species assumed): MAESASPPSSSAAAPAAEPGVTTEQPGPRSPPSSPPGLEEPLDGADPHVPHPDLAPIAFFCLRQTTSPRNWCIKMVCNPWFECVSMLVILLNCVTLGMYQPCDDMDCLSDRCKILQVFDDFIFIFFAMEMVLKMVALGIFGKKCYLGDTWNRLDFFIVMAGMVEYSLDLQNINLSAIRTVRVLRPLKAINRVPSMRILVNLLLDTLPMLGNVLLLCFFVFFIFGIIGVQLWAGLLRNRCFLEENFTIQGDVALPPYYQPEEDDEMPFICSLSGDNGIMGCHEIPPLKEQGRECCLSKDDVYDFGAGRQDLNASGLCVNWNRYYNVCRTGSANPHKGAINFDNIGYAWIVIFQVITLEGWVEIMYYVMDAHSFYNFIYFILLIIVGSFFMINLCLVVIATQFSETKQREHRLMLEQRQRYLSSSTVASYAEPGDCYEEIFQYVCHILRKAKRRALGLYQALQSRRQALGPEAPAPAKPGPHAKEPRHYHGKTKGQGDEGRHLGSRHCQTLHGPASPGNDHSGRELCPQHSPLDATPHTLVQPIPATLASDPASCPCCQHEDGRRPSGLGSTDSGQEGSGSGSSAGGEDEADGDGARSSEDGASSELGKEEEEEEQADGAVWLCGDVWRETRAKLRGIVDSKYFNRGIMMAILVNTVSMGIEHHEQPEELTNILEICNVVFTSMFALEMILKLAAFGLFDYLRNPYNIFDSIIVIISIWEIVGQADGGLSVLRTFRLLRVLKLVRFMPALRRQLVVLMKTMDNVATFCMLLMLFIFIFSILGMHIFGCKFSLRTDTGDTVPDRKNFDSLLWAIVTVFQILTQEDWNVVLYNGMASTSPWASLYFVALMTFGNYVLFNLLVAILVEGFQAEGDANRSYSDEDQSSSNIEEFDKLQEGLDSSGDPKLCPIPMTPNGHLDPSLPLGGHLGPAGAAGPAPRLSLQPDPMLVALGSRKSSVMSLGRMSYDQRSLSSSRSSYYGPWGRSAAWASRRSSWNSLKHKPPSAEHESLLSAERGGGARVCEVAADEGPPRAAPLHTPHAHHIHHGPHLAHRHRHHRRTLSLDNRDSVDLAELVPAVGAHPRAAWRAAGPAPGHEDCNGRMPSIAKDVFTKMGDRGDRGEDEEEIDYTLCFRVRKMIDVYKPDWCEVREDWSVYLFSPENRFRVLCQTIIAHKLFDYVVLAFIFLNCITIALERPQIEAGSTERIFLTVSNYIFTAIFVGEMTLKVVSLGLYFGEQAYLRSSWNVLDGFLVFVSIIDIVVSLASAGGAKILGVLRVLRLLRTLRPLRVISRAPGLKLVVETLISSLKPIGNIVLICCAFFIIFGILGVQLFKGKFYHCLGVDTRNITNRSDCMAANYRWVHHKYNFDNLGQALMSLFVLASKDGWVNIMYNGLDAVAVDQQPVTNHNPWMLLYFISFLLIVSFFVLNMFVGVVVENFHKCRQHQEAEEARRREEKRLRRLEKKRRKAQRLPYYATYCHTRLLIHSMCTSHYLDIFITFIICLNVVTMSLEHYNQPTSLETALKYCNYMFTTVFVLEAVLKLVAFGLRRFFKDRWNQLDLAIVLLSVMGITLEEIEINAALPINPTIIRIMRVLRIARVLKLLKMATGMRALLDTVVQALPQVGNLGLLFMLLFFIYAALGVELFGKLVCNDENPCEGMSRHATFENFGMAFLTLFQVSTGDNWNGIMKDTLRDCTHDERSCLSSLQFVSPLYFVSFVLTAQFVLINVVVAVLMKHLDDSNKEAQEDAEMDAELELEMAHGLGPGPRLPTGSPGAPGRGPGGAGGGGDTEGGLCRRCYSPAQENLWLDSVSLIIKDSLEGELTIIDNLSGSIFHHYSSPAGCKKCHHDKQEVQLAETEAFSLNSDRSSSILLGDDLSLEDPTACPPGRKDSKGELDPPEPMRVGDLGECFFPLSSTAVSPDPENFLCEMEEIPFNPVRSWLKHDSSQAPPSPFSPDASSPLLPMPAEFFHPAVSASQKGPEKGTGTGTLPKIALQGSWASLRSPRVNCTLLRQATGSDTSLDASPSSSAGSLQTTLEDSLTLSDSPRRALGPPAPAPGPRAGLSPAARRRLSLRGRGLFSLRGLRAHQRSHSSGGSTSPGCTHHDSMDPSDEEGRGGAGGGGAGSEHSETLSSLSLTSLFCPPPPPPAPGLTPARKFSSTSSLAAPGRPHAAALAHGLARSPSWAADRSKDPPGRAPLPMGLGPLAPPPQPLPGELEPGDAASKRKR

SMILES strings stand for the structures. pIC50: −log10 of the molar value.

What is called EC50 is the concentration that produces a half-maximal response. Read a high EC50 as lower potency in that assay. What is called pIC50 is −log10 of the IC50, conventionally taken in molar units. Lower therefore signals a large IC50.

Sequence of Cav3.1 (O43497 whole entry): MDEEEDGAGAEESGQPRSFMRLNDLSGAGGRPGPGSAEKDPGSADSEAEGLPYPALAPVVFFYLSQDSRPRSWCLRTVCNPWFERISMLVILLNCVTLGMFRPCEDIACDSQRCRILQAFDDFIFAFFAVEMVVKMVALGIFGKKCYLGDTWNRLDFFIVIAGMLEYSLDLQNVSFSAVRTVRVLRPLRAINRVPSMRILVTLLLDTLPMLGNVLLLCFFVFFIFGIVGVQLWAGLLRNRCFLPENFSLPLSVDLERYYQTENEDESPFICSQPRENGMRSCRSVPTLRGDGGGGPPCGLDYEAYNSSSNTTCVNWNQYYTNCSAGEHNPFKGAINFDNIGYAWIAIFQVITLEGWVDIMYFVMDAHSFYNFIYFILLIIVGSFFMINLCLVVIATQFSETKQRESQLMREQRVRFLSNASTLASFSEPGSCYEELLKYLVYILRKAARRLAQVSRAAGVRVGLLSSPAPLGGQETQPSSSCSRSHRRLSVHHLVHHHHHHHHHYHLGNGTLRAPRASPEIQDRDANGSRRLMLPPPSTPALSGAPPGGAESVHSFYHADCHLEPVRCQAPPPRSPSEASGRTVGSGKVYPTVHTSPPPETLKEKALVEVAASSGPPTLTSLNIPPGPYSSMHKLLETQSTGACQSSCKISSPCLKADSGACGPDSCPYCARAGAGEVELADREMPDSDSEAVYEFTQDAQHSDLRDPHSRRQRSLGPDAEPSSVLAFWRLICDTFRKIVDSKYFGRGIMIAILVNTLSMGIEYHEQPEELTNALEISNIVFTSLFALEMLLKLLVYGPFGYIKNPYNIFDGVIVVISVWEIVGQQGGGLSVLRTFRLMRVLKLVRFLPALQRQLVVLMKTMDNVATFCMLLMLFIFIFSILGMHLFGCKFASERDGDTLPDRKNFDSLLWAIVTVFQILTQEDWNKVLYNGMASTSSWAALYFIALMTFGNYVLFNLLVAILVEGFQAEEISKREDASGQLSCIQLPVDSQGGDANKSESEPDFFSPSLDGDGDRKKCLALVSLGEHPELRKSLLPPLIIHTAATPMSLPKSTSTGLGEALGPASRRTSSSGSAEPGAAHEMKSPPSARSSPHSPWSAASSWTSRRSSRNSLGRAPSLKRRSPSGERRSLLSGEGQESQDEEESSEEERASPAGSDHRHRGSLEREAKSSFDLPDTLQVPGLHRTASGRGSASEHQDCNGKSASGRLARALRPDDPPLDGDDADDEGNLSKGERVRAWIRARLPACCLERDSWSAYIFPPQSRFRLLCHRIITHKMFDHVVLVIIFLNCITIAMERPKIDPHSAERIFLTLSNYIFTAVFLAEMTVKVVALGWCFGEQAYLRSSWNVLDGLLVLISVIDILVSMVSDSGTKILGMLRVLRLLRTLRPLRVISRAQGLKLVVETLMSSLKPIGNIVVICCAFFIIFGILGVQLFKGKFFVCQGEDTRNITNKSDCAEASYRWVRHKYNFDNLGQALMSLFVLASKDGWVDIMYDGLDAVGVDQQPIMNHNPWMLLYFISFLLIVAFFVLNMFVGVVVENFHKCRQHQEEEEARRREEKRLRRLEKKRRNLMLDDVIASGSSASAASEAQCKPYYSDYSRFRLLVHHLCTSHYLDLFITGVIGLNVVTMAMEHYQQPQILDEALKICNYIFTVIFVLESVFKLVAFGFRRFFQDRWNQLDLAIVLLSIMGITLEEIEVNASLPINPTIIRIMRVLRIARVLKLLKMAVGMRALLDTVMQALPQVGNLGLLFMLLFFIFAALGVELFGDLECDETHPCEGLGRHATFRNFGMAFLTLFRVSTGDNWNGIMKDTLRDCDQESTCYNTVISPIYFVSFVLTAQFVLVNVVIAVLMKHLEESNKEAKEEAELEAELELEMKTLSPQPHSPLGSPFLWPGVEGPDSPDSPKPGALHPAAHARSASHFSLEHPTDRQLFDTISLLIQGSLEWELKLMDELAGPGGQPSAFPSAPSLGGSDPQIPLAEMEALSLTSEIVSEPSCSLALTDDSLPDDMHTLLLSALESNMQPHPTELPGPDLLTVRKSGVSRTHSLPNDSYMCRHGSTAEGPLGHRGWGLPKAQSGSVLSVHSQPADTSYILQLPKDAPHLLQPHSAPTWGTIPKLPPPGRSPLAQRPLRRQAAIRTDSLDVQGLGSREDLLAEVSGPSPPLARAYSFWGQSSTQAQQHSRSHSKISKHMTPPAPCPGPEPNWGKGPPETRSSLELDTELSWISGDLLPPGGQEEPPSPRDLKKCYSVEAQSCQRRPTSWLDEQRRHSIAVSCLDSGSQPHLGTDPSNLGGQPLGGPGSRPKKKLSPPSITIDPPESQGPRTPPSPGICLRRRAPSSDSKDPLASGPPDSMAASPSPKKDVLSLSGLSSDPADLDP

Take `Cc1ccc(C)c2[nH]c(CCCN(C)CC[C@@]3(OC(=O)N4CCOCC4)CCc4cc(F)ccc4[C@@H]3C(C)C)nc12` [Example 15, (1S,2S)-2-(2-((3-(4,7-Dimethyl-1H-benzo[d]imidazol-2-yl)propyl)(methyl)amino)ethyl)-6-fluoro-1-isopropyl-1,2,3,4-tetrahydronaphthalen-2-yl morpholine-4-carboxylate]: the EC50 in assay [1] stood at 4.8 µM. Further, the negative-log IC50 (pIC50) against Cav3.1 is 6.86; on Cav3.2, 6.47; at Cav3.3, 6.67.

Source of the values: US11130750B2, “Calcium channel inhibitors” (Cavion, Inc., priority 2017, dated 2021).
